The structures appear in SMILES notation. pIC50: −log10 of the molar value. Like-named read-outs stand apart in the source and are kept apart here.

This note sets out measurements from patent publication US20240116985A1, “STAPLED PEPTIDES AND METHODS THEREOF” (priority 2020, published 2024).

Assay [1] addresses T1, full-length beta-Catenin (Uniprot ID P35222) (Homo sapiens, UniProt P35222).
T1 construct: 10 nM full-length beta-Catenin (Uniprot ID P35222)
T1 sequence (P35222 1-781): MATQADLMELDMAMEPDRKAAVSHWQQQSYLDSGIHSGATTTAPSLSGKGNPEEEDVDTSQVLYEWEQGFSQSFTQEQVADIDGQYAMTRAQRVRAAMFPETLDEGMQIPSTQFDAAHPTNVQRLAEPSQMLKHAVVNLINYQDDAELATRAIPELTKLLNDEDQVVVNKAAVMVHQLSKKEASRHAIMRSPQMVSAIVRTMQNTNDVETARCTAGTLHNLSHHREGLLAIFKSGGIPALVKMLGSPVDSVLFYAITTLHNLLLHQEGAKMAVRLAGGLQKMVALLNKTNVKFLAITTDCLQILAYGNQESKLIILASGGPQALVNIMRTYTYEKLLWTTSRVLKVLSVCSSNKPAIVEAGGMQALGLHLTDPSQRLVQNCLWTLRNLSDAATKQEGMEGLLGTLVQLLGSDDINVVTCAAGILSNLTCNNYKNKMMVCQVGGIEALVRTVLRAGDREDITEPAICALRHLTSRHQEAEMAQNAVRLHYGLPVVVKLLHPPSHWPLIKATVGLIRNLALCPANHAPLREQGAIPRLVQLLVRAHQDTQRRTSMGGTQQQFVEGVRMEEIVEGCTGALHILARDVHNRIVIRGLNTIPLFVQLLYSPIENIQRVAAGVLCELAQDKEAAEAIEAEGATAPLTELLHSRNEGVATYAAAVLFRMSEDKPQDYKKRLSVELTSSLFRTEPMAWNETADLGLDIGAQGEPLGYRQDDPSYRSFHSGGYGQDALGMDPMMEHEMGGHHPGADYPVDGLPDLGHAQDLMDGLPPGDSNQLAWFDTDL
Nature of the assay: Fluorescence polarization IC50 (beta-catenin / 5FAM-TCF4 10-53 competition). The assay is classed as binding. The following applies: fluorescence polarization; read-out: beta-Catenin FP IC50.

Assay [2] relates to TCF/LEF luciferase Reporter in DLD1 cells. Kind of assay: TCF reporter assay (DLD1 TCF/LEF luciferase reporter, Bright-Glo). The settings on record: absolute IC50. The assay is classed as cell-based. The source says:
Those skilled in the art will appreciate that other suitable reagents may be utilized and various parameters may be adjusted.
DLD1 reporter cell line was generated by using TCF/LEF luciferase Reporter Lentivirus (BPS Bioscience Catalog #79787). Parental DLD1 cells (ATCC@ CCL-221) were transfected with the lentivirus and followed by 3-day puromycin selection. Single clone was selected for Reporter assay.
On Day 1, cultured cells in flasks that are no more than about 60-70% confluent were washed with PBS and typsinized in 3 mL/T75 until cells were free floating. Spin down cells for 5 minutes at 1100RPM. While cells spin, determine the number of plates (3 compounds per plate) needed. After spinning, aspirate the supernatant gently and add 10 mL media (RPMI+4% FBS), and re-suspend and mix the cells gently. Count the cells twice in the cell counter Countess and take average of both the counts, and determine how many cells are needed. After plating cells at 5000 cells/well, seal with aerseal film. 90 uL cells/well. Incubate at 37° C. overnight, tap gently to mix and don't stack plates.
On Day 2, compounds were added. Stock solution was 10 mM. Make the DMSO containing media by adding 36 uL DMSO to 10 mL of media. Make the dilution wells by transferring 100 uL DMSO+Media into rows B-F of a protein LoBind 96-well plate. Row G is empty. Add any extra DMSO+media to row H. Transfer 4 uL of stock solution to Row A. One compound per column. Add 196 uL media to Row A, no DMSO in the media. Concentration of Row A was 200 uM. Mix well and do a 6 pt, 1:2 serial dilution, mix ×10 per transfer and change tips before each transfer. Removed excess volume from final well (row F) and discard. Transfer 10 uL of the compound containing media to cells with a multichannel according to plate maps. Add 60 uL DMSO containing media to the DMSO wells. The edge wells were typically not used in the assay and could be ignored if needed or replaced with PBS, but there typically were liquids in the wells. Cover plates with breathable plate sealer and incubate overnight.
A 96-well plate may be utilized to prepare dilution series for up to 12 compounds, each with several concentrations (e.g., 200, 100, 50, 25, 12.5, 6.25 and 0 uM; can be utilized as 100× depending on final test concentrations).
0 uM is the DMSO control for the whole plate. Edge well filled with 90 uL cells+10 uL DMSO containing media.
On Day 3, luciferase levels were assessed using Bright-Glo (Promega). Equilibrate Bright-Glo to room temperature before addition. 7 mL of mixed Bright-Gbo per plate. Unused Bright-Glo could be store at −80° C. Reconstituted reagent can be stored for up to 1 month at −80° C., or after one freeze-thaw. When ready to read, remove plates from incubator and let sit at room temperature for 15 minutes. Typically stagger taking out plates if reading multiple plates before adding the Bright-Glo. Add 90 uL/well Bright-Glo and shake gently for 3 minutes. Read luminescence on GloMax immediately using ‘BrightGlo’ programs.
Cellular activity was assessed using CTG. Equilibrate CTG reagents to room temperature. Equilibrate plates to room temp, e.g. 15 min. Use same time length for all plates. Add CTG reagent, 25 uL if using undiluted, or 90 uL if diluted 1 to 4. Shake for 2 min to induce cell lysis. Allow plate to incubate at RT for 10 min to stabilize lumine sent signal. Read luminesence using program ‘CellTiter-Glo’. Use Prism to find the Absolute IC50 (AbsIC50=X[50]) of each compound.

Assay [3] addresses T2, beta-catenin/TCF4 engagement (Homo sapiens, UniProt P35222).
T2 construct: expressed in transfected cells; host or cells: HEK293
T2 sequence (P35222 1-781): T1 sequence (P35222 1-781)
Kind of assay: Nano-BRET target engagement assay (B-cat-Halo & TCF4-Luc in HEK293 cells). The assay is classed as cell-based. The following applies: absolute IC50; read-out: NanoBRET Abs IC50.

[4] abbreviates: read-out: DLD1 4% Abs IC50, DLD1 reporter, 4%.
[5] abbreviates: read-out: DLD1 4% Abs IC50, DLD1 reporter assay, 4%.

Turning to `CC(=O)N1CCC[C@]12CC=CCCCC1(CCCC=CCCCOC(=O)N3CC[C@@](C(=O)N[C@@H](Cc4ccccc4Cl)C(=O)N[C@@H](Cc4csc5ccccc45)C(=O)N[C@H](CO)CC(C)C)(C3)NC(=O)[C@H]([C@@H](C)O)NC(=O)[C@H](Cc3ccccc3)NC(=O)[C@H](C)NC(=O)[C@H](C)NC(=O)[C@H](CC(=O)O)NC(=O)[C@H](CC(=O)O)NC1=O)NC(=O)[C@H](CC(C)(C)C)NC(=O)[C@H](CC(=O)O)NC2=O` (stereo partly drawn) [I-1247, Ac-PL3-Asp-Npg-B5-Asp-Asp-Ala-Ala-Phe-Thr-PyrS2-2C1F-BztA-Leuo1], the figures for the pIC50 in assay [1], in assay [2] (read-out: DLD1 reporter assay Abs IC50) and in assay [3] were 7.48, < 4.70 and < 4.70, respectively.
For `CC(=O)N1CCC[C@]12CC=CCCCC1(CCCC=CCCCOC(=O)N3CC[C@@](C(=O)N[C@@H](Cc4ccsc4)C(=O)N[C@@H](Cc4csc5ccccc45)C(=O)N[C@H](CO)[C@@H](C)O)(C3)NC(=O)[C@H](CC(C)C)NC(=O)[C@H](Cc3ccccc3)NC(=O)[C@H](C)NC(=O)[C@H](C)NC(=O)[C@H](CC(=O)O)NC(=O)[C@H](CC(=O)O)NC1=O)NC(=O)[C@H](CC(C)(C)C)NC(=O)[C@H](CC(=O)O)NC2=O` (stereo partly drawn) [I-1302, Ac-PL3-Asp-Npg-B5-Asp-Asp-Ala-Ala-Phe-Leu-PyrS2-3Thi-BztA-Thro1], the pIC50 is 7.35 in assay [1], 5.40 in assay [2] (setting [4]) and 4.67 in assay [3].
As to `CC(=O)N1CCC[C@]12CC=CCCCC1(CCCC=CCCCOC(=O)N3CC[C@@](C(=O)N[C@@H](Cc4ccccc4C(F)(F)F)C(=O)N[C@@H](Cc4csc5ccccc45)C(=O)N[C@@H](CCC(N)=O)C(N)=O)(C3)NC(=O)[C@H](CC(C)C)NC(=O)[C@H](Cc3ccccc3)NC(=O)[C@H](C)NC(=O)[C@H](C)NC(=O)[C@H](CC(=O)O)NC(=O)[C@H](CC(=O)O)NC1=O)NC(=O)[C@H](CC(C)(C)C)NC(=O)[C@H](CC(=O)O)NC2=O` (stereo partly drawn) [I-1318, Ac-PL3-Asp-Npg-B5-Asp-Asp-Ala-Ala-Phe-Leu-PyrS2-2F3MeF-BztA-Gln-NH2], the pIC50 in assay [1] is 7.85; in assay [2] (setting [4]), 5.41; in assay [3], 5.32.
In the same order, the values of `CC(=O)N1CCC[C@]12CC=CCCCC1(CCCC=CCCCOC(=O)N3CC[C@@](C(=O)N[C@@H](Cc4ccsc4)C(=O)N[C@@H](Cc4csc5ccccc45)C(=O)N[C@@H](CCC(N)=O)C(N)=O)(C3)NC(=O)[C@H](CC(C)C)NC(=O)[C@H](Cc3ccccc3)NC(=O)[C@H](C)NC(=O)[C@H](C)NC(=O)[C@H](CN(CC(=O)O)CC(F)(F)F)NC(=O)[C@H](CC(=O)O)NC1=O)NC(=O)[C@H](CC(C)(C)C)NC(=O)[C@H](CC(=O)O)NC2=O` (stereo partly drawn) [I-1461, Ac-PL3-Asp-Npg-B5-Asp-TfeGA-Ala-Ala-Phe-Leu-PyrS2-3Thi-BztA-Gln-NH2] are 8.00, 5.77 and 5.43.
On to `CC(=O)N1CCC[C@]12CC=CCCCC1(CCCC=CCCCOC(=O)N3CC[C@@](C(=O)N[C@@H](Cc4ccccc4C(F)(F)F)C(=O)N[C@@H](Cc4csc5ccccc45)C(=O)N[C@@H](CC(=O)N4CCN(C)CC4)C(N)=O)(C3)NC(=O)[C@H](CC(C)C)NC(=O)[C@H](Cc3ccccc3)NC(=O)[C@H](C)NC(=O)[C@H](C)NC(=O)[C@H](Cc3cccc(C(=O)O)c3)NC(=O)[C@H](CC(=O)O)NC1=O)NC(=O)[C@H](CC(C)(C)C)NC(=O)[C@H](CC(=O)O)NC2=O` (stereo partly drawn) [I-1612, Ac-PL3-Asp-Npg-B5-Asp-3COOHF-Ala-Ala-Phe-Leu-PyrS2-2F3MeF-BztA-MePpzAsn-NH2], for which the results for the pIC50 in assay [1], in assay [2] (setting [5]) and in assay [3] were 8.00, 5.40 and 5.28, respectively.
In the same order, the values of `CC(=O)N1CCC[C@]12CC=CCCCC1(CCCC=CCCCOC(=O)N3CC[C@@](C(=O)N[C@@H](Cc4ccccc4C(F)(F)F)C(=O)N[C@@H](Cc4csc5ccccc45)C(=O)N[C@@H](CCCCNC(C)C)C(N)=O)(C3)NC(=O)[C@H](CC(C)C)NC(=O)[C@H](Cc3ccccc3)NC(=O)[C@H](C)NC(=O)[C@H](C)NC(=O)[C@H](Cc3cccc(C(=O)O)c3)NC(=O)[C@H](CC(=O)O)NC1=O)NC(=O)[C@H](CC(C)(C)C)NC(=O)[C@H](CC(=O)O)NC2=O` (stereo partly drawn) [I-1616, Ac-PL3-Asp-Npg-B5-Asp-3COOHF-Ala-Ala-Phe-Leu-PyrS2-2F3MeF-BztA-iPrLys-NH2] are 7.89, 5.55 and 5.35.
The like results for `CC(=O)N1CCC[C@]12CC=CCCCC1(CCCC=CCCCOC(=O)N3CC[C@@](C(=O)N[C@@H](Cc4ccsc4)C(=O)N[C@@H](Cc4csc5ccccc45)C(=O)N[C@@H](CCC(N)=O)C(N)=O)(C3)NC(=O)[C@H](CC(C)C)NC(=O)[C@H](Cc3ccccc3)NC(=O)[C@H](C)NC(=O)[C@H](C)NC(=O)[C@H](CN(CCCC(F)(F)F)CC(=O)O)NC(=O)[C@H](CC(=O)O)NC1=O)NC(=O)[C@H](CC(C)(C)C)NC(=O)[C@H](CC(=O)O)NC2=O` (stereo partly drawn) [I-1629, Ac-PL3-Asp-Npg-B5-Asp-[Tfb]GA-Ala-Ala-Phe-Leu-PyrS2-3Thi-BztA-Gln-NH2] were, in that order, 7.92, 5.57 and 5.37.
In the same order, the values of `CC(=O)N1CCC[C@]12CC=CCCCC1(CCCC=CCCCOC(=O)N3CC[C@@](C(=O)N[C@@H](Cc4ccsc4)C(=O)N[C@@H](Cc4csc5ccccc45)C(=O)N[C@@H](CCC(N)=O)C(N)=O)(C3)NC(=O)[C@H](CC(C)C)NC(=O)[C@H](Cc3ccccc3)NC(=O)[C@H](C)NC(=O)[C@H](C)NC(=O)[C@H](CN(CC(=O)O)Cc3c(F)c(F)c(F)c(F)c3F)NC(=O)[C@H](CC(=O)O)NC1=O)NC(=O)[C@H](CC(C)(C)C)NC(=O)[C@H](CC(=O)O)NC2=O` (stereo partly drawn) [I-1632, Ac-PL3-Asp-Npg-B5-Asp-[Pfbn]GA-Ala-Ala-Phe-Leu-PyrS2-3Thi-BztA-Gln-NH2] are 8.00, 5.59 and 5.19.
